Key:
[1] = Plasma cholesterol levels in ApoE -/- mice; type: in vivo, mouse; details: AEPU-treated ApoE -/- mice
[2] = AEPU metabolism in rat liver S9 fraction; type: in vitro ADME
[3] = molecular target: T1, purified murine sEH recombinant enzyme (Mus musculus, UniProt P34914); assay: sEH activity fluorescent assay; type: biochemical
T1 sequence (P34914 1-554): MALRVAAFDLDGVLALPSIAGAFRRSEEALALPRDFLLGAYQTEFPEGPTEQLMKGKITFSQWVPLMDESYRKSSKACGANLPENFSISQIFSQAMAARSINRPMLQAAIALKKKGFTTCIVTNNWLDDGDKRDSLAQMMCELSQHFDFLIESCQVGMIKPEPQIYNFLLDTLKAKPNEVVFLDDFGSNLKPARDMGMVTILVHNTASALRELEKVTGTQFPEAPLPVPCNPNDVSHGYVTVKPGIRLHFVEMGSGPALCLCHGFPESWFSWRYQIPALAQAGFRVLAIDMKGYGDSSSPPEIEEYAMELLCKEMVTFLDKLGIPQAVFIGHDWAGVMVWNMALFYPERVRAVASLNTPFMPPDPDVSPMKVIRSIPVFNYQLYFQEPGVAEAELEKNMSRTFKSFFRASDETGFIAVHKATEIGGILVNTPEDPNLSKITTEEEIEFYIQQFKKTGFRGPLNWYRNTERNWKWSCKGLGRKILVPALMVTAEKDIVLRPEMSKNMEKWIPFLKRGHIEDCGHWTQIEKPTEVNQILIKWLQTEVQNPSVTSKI

in vivo = details: ApoE -/-, mouse, plasma, oral, 90 µg/ml in drinking water
[4] = Single oral dose pharmacokinetic study in mice; type: in vivo, mouse; details: AEPU by oral gavage 10 mg/kg, over 24 hours

Row | Compound | Plasma cholesterol level ([1]; control 2.5±0.6 mM) [mM] | Plasma cholesterol level ([1]; control 96.2±23.1 mg/dl) [mg/dL] | Metabolism in the absence of NADPH ([2]; rat S9 liver preparation without NADPH) | AEPU remaining in the mixture ([2]; rat liver S9 2.5 mg/mL, NADPH generating system, AEPU 10 µM, 60 min) | IC50 [3] [µM] | concentration at 8 weeks (in vivo) [nM] | fold less potent on the enzyme than AEPU ([3]; murine sEH) [fold] | times more abundant in the plasma than AEPU [4]
1 | CCOCCOCCOCCCCCNC(=O)NC12CC3CC(CC(C3)C1)C2 [AEPU, 1-adamantan-3-(5-(2-(2-ethylethoxy)ethoxy)pentyl)urea] | 2.5 ± 0.9 | 96.2 ± 34.6 | no metabolism | less than 10% | – | – | – | –
2 | O=C(NCCCCCOCCOCCOCCO)NC12CC3CC(CC(C3)C1)C2 [Compound 975, 1-adamantan-1-yl-3-(5-{2-[2-(2-hydroxy-ethoxy)-ethoxy]-ethoxy}-pentyl)-urea] | – | – | – | – | 0.0047 ± 0.0007 | – | – | –
3 | CCOCCOCCOCCCCCNC(=O)NC12CC3CC(CC(O)(C3)C1)C2 [Compound 1010, 1-{5-[2-(2-ethoxyethoxy)-ethoxy]-pentyl}-3-(3-hydroxy-adamantan-1-yl)-urea] | – | – | – | – | 0.078 ± 0.019 | 565 | 28 | roughly 5,000 times

From PMC2637359 (Journal of cardiovascular pharmacology, 2008)
